Among the data in ChEMBL document CHEMBL3751782, “Synthesis and biological evaluation of quinoxaline di-N-oxide derivatives with in vitro trypanocidal activity” (Bioorg Med Chem Lett, 2016) are IC50, selectivity ratio and inhibition values, retold here.

For orientation: IC50 means the concentration that gives 50% inhibition. The term inhibition denotes the relative decrease from the control value, in per cent.

In data set [1] the test system is Trypanosoma cruzi. Put plainly: Trypanocidal activity against Trypanosoma cruzi Tulahuen 2 epimastigotes after 5 days. Format: functional, organism-based. Conditions: Tulahuen 2, 120 h.
A short description of data set [2]: Selectivity index, ratio of IC50 for African green monkey Vero cells to IC50 for Trypanosoma cruzi Tulahuen 2 epimastigotes. Format: toxicity, cell-based. Conditions: read-out: Ratio IC50.
Another data set relates to Vero. The data set is described as follows: Cytotoxicity against African green monkey Vero cells after 48 hrs by MTT assay. The class given is cell-based. Conditions: Chlorocebus sabaeus.
In data set [3] the test system is Trypanosoma cruzi. The data set is described as follows: Trypanocidal activity against Trypanosoma cruzi Tulahuen 2 epimastigotes at 25 uM after 5 days. Format: functional. The settings on record: Tulahuen 2, 120 h.

Consider `O=C(c1ccc(F)cc1)c1c(C(F)(F)F)[n+]([O-])c2cc(F)c(F)cc2[n+]1[O-]`, for which the IC50 in the data set with Trypanosoma cruzi [1] was determined as 0.6 µM; in the data set with Vero it was 3 µM. Moreover, in data set [2], the selectivity ratio is 5. The inhibition at 25 µM with Trypanosoma cruzi [3] is 91.8%.
For `CC(=O)c1c(C(F)(F)F)[n+]([O-])c2cc(F)c(N3CCCCC3)cc2[n+]1[O-]` the same measures were 2.6 µM, 15.2 µM, 5.8 and 96.9%.
Turning to `CC(=O)c1c(C(F)(F)F)[n+]([O-])c2cc(F)c(N3CCC(N4CCOCC4)CC3)cc2[n+]1[O-]`, the IC50 with Trypanosoma cruzi [1] worked out at 5.3 µM. The same compound displayed an inhibition at 25 µM with Trypanosoma cruzi [3] of 93.4%.
On to `O=C(c1ccco1)c1c(C(F)(F)F)nc2cc(Cl)c(N3CCOCC3)cc2[n+]1[O-]`, for which the IC50 worked out at 12.1 µM in the data set with Trypanosoma cruzi [1] and 455 µM in the data set on Vero. The selectivity ratio in data set [2] amounted to 37.6. 25 µM produced 91.7% inhibition in the data set on Trypanosoma cruzi [3].
With `CC(C)C(=O)c1c(C(F)(F)F)[n+]([O-])c2cc(N3CCOCC3)c(N3CCOCC3)cc2[n+]1[O-]`, in the data set on Trypanosoma cruzi [1], the IC50 was found to be 17 µM. This compound returned an inhibition at 25 µM with Trypanosoma cruzi [3] of 66.3%.
The compound `O=C(Cn1ccnc1[N+](=O)[O-])NCc1ccccc1` [BENZNIDAZOLE] had a concentration for half-maximal inhibition (IC50) in the data set with Trypanosoma cruzi [1] of 8 µM. In addition, in the data set on Trypanosoma cruzi [3], 25 µM produced 100% inhibition.
For `O=C(c1ccc(F)cc1)c1c(C(F)(F)F)[n+]([O-])c2cc(Cl)c(Cl)cc2[n+]1[O-]` the same measures were 1.3 µM and 89.3%.
`O=C(c1ccc(F)cc1)c1c(C(F)(F)F)[n+]([O-])c2ccc(F)cc2[n+]1[O-]`: the figures for the IC50 with Trypanosoma cruzi [1] and in the data set with Vero were 1.1 µM and 4.4 µM, respectively. Besides, the selectivity ratio in data set [2] is 4. Besides, testing at 25 µM in the data set with Trypanosoma cruzi [3] gave an inhibition of 95.6%.
For `CC(=O)c1c(C(F)(F)F)[n+]([O-])c2cc(N3CCCCC3)c(N3CCCCC3)cc2[n+]1[O-]` the same measures were 2.3 µM, 4.5 µM, 1.7 and 100%.
In the case of `CCOC(=O)c1c(C(F)(F)F)nc2cc(Cl)c(N3CCOCC3)cc2[n+]1[O-]`, the IC50 with Trypanosoma cruzi [1] is > 25 µM. The compound further came in with an inhibition at 25 µM with Trypanosoma cruzi [3] of 54.6%.
For the compound `O=C(c1ccc(F)cc1)c1c(C(F)(F)F)[n+]([O-])c2ccc(Cl)cc2[n+]1[O-]`, in the data set with Trypanosoma cruzi [1], the IC50 was found to be 1 µM. Moreover, 25 µM produced 86.1% inhibition in the data set on Trypanosoma cruzi [3].
On the same counts, the results for `CC(=O)c1c(C(F)(F)F)[n+]([O-])c2cc(F)c(N3CCC(O)CC3)cc2[n+]1[O-]` are 6.3 µM and 84.9%.
Consider `CC(=O)c1c(C(F)(F)F)[n+]([O-])c2cc(N3CCC(O)CC3)c(N3CCC(O)CC3)cc2[n+]1[O-]`, for which the IC50 in the data set with Trypanosoma cruzi [1] is > 25 µM. The compound also registered an inhibition at 25 µM with Trypanosoma cruzi [3] of 15.7%.
For the compound `CC(C)C(=O)c1c(C(F)(F)F)[n+]([O-])c2cc(N(C)C)c(N3CCOCC3)cc2[n+]1[O-]`, in the data set with Trypanosoma cruzi [1], half-maximal inhibition (IC50) was put at 10.7 µM. For the same compound, testing at 25 µM in the data set with Trypanosoma cruzi [3] gave an inhibition of 86%.
For `CC(=O)c1c(C(F)(F)F)[n+]([O-])c2cc(F)c(N3CCOCC3)cc2[n+]1[O-]` the same measures were 6.4 µM and 100%.
In the case of `CC1CS(=O)(=O)CCN1/N=C/c1ccc([N+](=O)[O-])o1` (stereo not drawn) [NIFURTIMOX], the inhibition at 25 µM with Trypanosoma cruzi [3] is 100%.
`CC(=O)c1c(C(F)(F)F)[n+]([O-])c2cc(F)c(N3CCSCC3)cc2[n+]1[O-]` had an IC50 with Trypanosoma cruzi [1] of 2 µM. Also, the inhibition at 25 µM in the data set on Trypanosoma cruzi [3] is 83.4%.
